According to BindingDB's records for doi:10.1016/j.bmc.2014.04.026 (Florida A&M University, 2014):

Biological target: D(3) dopamine receptor (Homo sapiens, UniProt P35462)
Assay: Displacement of [3H]N-methylspiperone from human dopamine D3 receptor by PDSP assay

D(3) dopamine receptor, sequence (P35462 as listed by the source): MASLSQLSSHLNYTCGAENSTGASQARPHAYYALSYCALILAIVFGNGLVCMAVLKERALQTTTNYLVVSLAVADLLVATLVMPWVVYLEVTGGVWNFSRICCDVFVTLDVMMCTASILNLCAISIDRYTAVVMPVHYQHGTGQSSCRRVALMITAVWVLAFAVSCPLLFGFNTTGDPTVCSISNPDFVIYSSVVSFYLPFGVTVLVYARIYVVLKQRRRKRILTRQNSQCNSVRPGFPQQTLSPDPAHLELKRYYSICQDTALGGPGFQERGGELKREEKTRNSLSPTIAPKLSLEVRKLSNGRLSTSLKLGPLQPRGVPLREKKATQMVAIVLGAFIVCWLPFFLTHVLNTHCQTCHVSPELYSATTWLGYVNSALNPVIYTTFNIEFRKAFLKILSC

Ki: 671 nM
SMILES: Clc1ccc(N2C[C@H]3C[C@@H]2CN3CCCc2cc3ccccc3o2)cc1
